What all share (format): biochemical
The target in assay [1] is recombinant PI3K (p110α/p85α) (Homo sapiens, UniProt P42336). In words: PI3Kα ADP-Glo kinase assay. Background: ADP-Glo turns the ADP formed in a reaction into a luminescent signal.
The target of assay [2] is recombinant PI3K (p110δ/p85α) (Homo sapiens, UniProt O00329). In words: PI3Kδ ADP-Glo kinase assay. As to the method: Compounds disclosed herein were tested for inhibition of PI3Kδ kinase activity using commercial ADP-Glo™ Kinase Assay (Promega Corporation) and following the manufacture's instruction. Briefly, recombinant PI3K (p110δ/p85α) enzyme, lipid kinase substrate and a serial dilution of compounds disclosed herein were incubated for 0.5 hr at room temperature. ATP was added to initiate the kinase reaction. After incubation for 1 hr at room temperature, ADP-Glo™ reagent was added to terminate the kinase reaction and deplete the remaining ATP. After incubation for 1 hr at room temperature, kinase detection reagent was added to simultaneously convert ADP to ATP and allow the newly synthesized ATP to be measured using a luciferase/luciferin reaction. After incubation for 0.5 hr at room temperature, the luminescence generated was measured on a PHERAstar FS plate reader (BMG LABTECH), The residual enzyme activity in presence of increasing concentrations of compounds was calculated based on the luminescence. The IC50 for each compound was derived from fitting the data to the four-parameter logistic equation by Graphpad Prism software.
Sequence of recombinant PI3K (p110δ/p85α) (O00329 whole entry): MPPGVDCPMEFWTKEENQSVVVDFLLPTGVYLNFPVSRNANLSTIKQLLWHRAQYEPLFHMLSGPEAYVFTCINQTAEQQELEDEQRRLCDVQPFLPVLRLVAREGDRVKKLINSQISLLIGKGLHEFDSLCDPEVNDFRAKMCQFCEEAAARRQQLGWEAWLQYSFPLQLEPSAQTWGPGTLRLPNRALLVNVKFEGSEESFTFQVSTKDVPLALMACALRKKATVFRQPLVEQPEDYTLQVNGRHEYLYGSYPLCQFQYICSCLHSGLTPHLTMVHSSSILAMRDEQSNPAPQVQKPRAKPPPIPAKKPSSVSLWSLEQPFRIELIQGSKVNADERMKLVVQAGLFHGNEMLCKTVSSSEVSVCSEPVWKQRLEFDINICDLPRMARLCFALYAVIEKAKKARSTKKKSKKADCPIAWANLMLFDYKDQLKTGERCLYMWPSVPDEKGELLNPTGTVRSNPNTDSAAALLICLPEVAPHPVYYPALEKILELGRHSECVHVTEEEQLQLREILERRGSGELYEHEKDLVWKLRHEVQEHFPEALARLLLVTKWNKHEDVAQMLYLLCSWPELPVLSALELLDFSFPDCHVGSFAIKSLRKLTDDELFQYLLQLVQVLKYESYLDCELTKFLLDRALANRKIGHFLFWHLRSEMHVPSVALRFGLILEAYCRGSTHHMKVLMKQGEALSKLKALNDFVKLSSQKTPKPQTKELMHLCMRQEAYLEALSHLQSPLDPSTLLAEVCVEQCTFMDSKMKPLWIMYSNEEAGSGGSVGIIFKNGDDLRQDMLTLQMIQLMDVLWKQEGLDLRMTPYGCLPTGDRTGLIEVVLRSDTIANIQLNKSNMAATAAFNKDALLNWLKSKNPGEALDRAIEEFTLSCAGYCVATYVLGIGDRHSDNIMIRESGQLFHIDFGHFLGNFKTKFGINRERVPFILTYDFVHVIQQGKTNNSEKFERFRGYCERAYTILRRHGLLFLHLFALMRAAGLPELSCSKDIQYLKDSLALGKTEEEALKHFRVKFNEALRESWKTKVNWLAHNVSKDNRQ
Sequence of recombinant PI3K (p110δ/p85α) (P27986 whole entry partner): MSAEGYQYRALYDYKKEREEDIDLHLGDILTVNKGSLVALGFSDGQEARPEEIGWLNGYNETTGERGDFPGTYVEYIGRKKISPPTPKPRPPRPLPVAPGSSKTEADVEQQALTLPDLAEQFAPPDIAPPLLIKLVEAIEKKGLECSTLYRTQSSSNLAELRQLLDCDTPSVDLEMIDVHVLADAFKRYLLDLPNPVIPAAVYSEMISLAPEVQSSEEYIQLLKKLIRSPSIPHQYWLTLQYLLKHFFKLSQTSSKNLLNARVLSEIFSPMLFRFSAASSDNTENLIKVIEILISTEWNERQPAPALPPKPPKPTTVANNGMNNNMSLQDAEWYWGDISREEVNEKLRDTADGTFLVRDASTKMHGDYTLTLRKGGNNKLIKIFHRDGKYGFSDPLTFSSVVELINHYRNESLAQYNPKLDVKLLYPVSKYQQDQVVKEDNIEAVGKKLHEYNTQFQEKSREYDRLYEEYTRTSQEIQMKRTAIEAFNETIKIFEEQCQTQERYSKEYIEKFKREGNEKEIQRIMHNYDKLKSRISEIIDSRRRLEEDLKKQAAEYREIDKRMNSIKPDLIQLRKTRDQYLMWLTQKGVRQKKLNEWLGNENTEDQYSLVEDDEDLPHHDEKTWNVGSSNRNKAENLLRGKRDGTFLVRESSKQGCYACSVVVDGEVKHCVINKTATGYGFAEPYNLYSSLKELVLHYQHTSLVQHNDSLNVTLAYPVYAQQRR

The target of another assay is PI3K (p110β/p85α) (Homo sapiens, UniProt P42338). In words: PI3Kβ ADP-Glo kinase assay.
Sequence of PI3K (p110β/p85α) (P42338 whole entry): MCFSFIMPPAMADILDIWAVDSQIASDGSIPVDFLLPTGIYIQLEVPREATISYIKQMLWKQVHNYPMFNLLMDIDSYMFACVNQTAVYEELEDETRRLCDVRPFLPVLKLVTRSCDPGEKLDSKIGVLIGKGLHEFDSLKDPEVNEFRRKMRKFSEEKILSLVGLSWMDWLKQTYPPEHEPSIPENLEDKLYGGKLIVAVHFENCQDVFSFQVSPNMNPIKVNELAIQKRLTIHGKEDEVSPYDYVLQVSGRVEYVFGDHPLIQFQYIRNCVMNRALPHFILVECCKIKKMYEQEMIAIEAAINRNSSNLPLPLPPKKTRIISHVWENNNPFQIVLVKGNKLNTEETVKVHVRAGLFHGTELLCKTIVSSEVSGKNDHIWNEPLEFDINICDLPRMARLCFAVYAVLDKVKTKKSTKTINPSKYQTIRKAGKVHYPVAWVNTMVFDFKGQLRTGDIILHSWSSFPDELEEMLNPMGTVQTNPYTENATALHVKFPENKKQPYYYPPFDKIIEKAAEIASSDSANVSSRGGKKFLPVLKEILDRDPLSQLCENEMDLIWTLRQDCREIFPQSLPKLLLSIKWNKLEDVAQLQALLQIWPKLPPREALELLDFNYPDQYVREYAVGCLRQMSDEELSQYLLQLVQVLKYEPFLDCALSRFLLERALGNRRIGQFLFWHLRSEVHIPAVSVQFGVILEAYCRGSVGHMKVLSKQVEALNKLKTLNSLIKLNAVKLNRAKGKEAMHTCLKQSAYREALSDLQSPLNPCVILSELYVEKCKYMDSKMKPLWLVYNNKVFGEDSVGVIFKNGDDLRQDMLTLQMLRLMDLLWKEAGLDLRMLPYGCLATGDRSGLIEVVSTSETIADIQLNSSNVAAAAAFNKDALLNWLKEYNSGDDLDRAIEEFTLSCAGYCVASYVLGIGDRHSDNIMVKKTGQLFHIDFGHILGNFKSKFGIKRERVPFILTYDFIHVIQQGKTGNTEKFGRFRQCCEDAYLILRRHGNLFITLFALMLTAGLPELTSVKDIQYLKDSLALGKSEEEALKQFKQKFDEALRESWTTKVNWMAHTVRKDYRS
Sequence of PI3K (p110β/p85α) (P27986 whole entry partner): as the sequence (P27986 whole entry partner) above
In a further assay the target is PI3K (p110γ) (Homo sapiens, UniProt P48736). Briefly: PI3Kγ ADP-Glo kinase assay.
Sequence of PI3K (p110γ) (P48736 whole entry): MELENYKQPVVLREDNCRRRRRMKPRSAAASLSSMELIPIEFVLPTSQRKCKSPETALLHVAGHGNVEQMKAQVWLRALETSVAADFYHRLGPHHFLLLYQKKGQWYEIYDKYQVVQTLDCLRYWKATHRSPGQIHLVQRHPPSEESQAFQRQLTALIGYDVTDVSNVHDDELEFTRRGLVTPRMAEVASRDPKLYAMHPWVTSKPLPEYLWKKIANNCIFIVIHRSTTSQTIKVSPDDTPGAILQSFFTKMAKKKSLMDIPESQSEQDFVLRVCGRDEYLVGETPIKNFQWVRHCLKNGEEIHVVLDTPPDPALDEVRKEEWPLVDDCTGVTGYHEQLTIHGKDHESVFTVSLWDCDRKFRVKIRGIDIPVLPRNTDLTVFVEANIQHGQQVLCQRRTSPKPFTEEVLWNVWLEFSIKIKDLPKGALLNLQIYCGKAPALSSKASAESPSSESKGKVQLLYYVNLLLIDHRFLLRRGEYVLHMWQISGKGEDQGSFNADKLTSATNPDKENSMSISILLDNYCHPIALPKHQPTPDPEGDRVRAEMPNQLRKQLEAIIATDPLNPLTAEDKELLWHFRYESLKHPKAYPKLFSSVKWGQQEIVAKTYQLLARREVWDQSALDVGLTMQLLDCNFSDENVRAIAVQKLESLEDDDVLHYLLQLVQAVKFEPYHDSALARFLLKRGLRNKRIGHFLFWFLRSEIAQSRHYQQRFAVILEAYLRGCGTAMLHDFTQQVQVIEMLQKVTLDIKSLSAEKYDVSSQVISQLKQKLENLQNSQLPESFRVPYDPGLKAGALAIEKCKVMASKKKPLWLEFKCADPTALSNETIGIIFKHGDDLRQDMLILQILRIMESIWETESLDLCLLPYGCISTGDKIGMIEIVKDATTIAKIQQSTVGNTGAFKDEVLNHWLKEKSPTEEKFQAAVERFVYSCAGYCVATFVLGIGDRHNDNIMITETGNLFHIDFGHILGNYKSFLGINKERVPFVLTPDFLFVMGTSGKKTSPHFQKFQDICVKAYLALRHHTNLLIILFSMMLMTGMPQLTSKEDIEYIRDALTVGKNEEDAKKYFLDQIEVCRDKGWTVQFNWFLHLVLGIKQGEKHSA
Setting [3] is: read-out: PI3Kα Enzyme activity IC50.
Setting [4] is: read-out: PI3Kδ Enzyme activity IC50.
[5] abbreviates: read-out: PI3Kβ Enzyme activity IC50.
Setting [6] is: read-out: PI3Kγ Enzyme activity IC50.

Structures are written as SMILES. Where two headings read alike, the source gives them in different places.

Sequence of recombinant PI3K (p110α/p85α) (P42336 whole entry): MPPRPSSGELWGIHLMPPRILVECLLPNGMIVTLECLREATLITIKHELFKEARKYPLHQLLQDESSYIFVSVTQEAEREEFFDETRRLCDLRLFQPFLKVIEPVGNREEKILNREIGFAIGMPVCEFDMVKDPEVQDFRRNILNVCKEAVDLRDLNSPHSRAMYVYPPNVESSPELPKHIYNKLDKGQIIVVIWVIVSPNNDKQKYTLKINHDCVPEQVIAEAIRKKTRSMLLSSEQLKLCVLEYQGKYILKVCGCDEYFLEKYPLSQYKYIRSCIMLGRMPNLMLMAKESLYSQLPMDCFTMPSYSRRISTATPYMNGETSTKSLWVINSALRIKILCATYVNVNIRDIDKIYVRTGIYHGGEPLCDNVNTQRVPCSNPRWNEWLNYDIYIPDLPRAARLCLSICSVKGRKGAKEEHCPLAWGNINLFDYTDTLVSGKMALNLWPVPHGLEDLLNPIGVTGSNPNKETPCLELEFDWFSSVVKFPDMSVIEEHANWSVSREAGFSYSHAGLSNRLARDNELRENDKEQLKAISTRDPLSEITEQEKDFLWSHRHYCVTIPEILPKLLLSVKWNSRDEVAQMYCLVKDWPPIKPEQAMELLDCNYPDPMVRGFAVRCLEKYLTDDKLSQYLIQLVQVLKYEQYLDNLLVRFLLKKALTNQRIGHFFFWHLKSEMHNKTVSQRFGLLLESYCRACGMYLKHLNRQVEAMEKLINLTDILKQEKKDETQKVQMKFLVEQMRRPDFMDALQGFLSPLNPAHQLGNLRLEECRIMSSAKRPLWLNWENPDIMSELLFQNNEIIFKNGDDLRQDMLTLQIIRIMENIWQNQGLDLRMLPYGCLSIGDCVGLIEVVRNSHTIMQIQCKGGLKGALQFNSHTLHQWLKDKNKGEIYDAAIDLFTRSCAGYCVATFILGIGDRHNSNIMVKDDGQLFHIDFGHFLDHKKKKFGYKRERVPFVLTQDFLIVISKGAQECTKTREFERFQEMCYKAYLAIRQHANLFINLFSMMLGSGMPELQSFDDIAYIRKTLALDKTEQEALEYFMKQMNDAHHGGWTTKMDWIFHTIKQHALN
Sequence of recombinant PI3K (p110α/p85α) (P27986 whole entry partner): as the sequence (P27986 whole entry partner) above

As for `CCOc1c([C@H](C)c2nc(Cl)c3c(N)nccn23)cc(Cl)c(C)c1-c1ccc(C)nc1` [Compound 8A], the IC50 worked out at 1300 nM in assay [1] (setting [3]), 0.51 nM in assay [2] (setting [4]), 580 nM at PI3K (p110β/p85α) (setting [5]) and 300 nM at PI3K (p110γ) (setting [6]).

For the compound `Cc1nc([C@@H](C)c2cc(Cl)c(F)c(-c3ccc(C(=O)N4CCC[C@@H]4C(=O)O)nc3)c2OC(C)C)n2ccnc(N)c12` [Compound 69, (5-(3-((S)-1-(8-amino-1-methylimidazo[1,5-a]pyrazin-3-yl)ethyl)-5-chloro-6-fluoro-2-isopropoxyphenyl)picolinoyl)-D-proline], the IC50 in assay [1] (setting [3]) was 7100 nM; in assay [2] (setting [4]), 0.71 nM; on PI3K (p110β/p85α) (setting [5]) it was 610 nM; on PI3K (p110γ) (setting [6]), 620 nM.

With `Cc1nc([C@@H](C)c2cc(Cl)c(F)c(-c3ccc(C(=O)N4CC(C(=O)O)C4)nc3)c2OC(C)C)n2ccnc(N)c12` [Compound 65, (S)-1-(5-(3-(1-(8-amino-1-methylimidazo[1,5-a]pyrazin-3-yl)ethyl)-5-chloro-6-fluoro-2-isopropoxyphenyl)picolinoyl)azetidine-3-carboxylic Acid], the IC50 in assay [1] (setting [3]) was found to be 5400 nM; in assay [2] (setting [4]), 0.71 nM; at PI3K (p110β/p85α) (setting [5]), 1200 nM; on PI3K (p110γ) (setting [6]), 1600 nM.

On to `CCOc1c(C(C)c2nc(Cl)c3c(N)nccn23)cc(F)c(Cl)c1-c1ccc(C(F)(F)F)nc1` (stereo not shown) [Compound 33, 1-chloro-3-(1-(4-chloro-2-ethoxy-5-fluoro-3-(6-(trifluoromethyl)pyridin-3-yl)phenyl)ethyl)imidazo[1,5-a]pyrazin-8-amine], for which the IC50 turned out to be 1800 nM in assay [1] (setting [3]), 5.7 nM in assay [2] (setting [4]), 1800 nM at PI3K (p110β/p85α) (setting [5]) and 750 nM on PI3K (p110γ) (setting [6]).

With `CCOc1c(C(C)c2nc(Cl)c3c(N)nccn23)cc(Cl)c(C)c1-c1ccc(OC)nc1` (stereo not shown) [Compound 29, 1-chloro-3-(1-(5-chloro-2-ethoxy-3-(6-methoxypyridin-3-yl)-4-methylphenyl)ethyl)imidazo[1,5-a]pyrazin-8-amine], the IC50 in assay [1] (setting [3]) came to 2900 nM; in assay [2] (setting [4]), 2.1 nM; at PI3K (p110β/p85α) (setting [5]), 820 nM; on PI3K (p110γ) (setting [6]), 1100 nM.

Turning to `CCCOc1c(C(C)c2nc(Cl)c3c(N)nccn23)cc(Cl)c(F)c1-c1ccc(C(F)(F)F)nc1` (stereo not shown) [Compound 42, 1-chloro-3-(1-(5-chloro-4-fluoro-2-propoxy-3-(6-(trifluoromethyl)pyridin-3-yl)phenyl)ethyl)imidazo[1,5-a]pyrazin-8-amine], the IC50 in assay [1] (setting [3]) was greater than 50000 nM; in assay [2] (setting [4]) it was 7.4 nM; at PI3K (p110β/p85α) (setting [5]) it was greater than 50000 nM; at PI3K (p110γ) (setting [6]), 1600 nM.

`CCOc1c(C(C)c2nc(Br)c3c(N)nccn23)cc(Cl)c(C)c1-c1ccc(Cl)nc1` (stereo not shown) [Compound 26, 1-bromo-3-(1-(5-chloro-3-(6-chloropyridin-3-yl)-2-ethoxy-4-methylphenyl)ethyl) imidazo[1,5-a]pyrazin-8-amine]: the IC50 in assay [1] (setting [3]) came out at 1500 nM; in assay [2] (setting [4]), 1.4 nM; at PI3K (p110β/p85α) (setting [5]), 330 nM; on PI3K (p110γ) (setting [6]), 500 nM.

For `CCOc1c(C(C)c2nc(Cl)c3c(N)nccn23)cc(Cl)c(C)c1-c1ccc(OCCOC)nc1` (stereo not shown) [Compound 31, 1-chloro-3-(1-(5-chloro-2-ethoxy-3-(6-(2-methoxyethoxy)pyridin-3-yl)-4-methylphenyl)ethyl)imidazo[1,5-a]pyrazin-8-amine], the IC50 in assay [1] (setting [3]) worked out at 2200 nM; in assay [2] (setting [4]), 2.5 nM; on PI3K (p110β/p85α) (setting [5]), 620 nM; at PI3K (p110γ) (setting [6]), 430 nM.

As for `Cc1nc([C@@H](C)c2cc(Cl)c(F)c(-c3ccc(C(=O)N4CCC(F)(F)CC4)nc3)c2OC(C)C)n2ccnc(N)c12` [Compound 71], the IC50 in assay [1] (setting [3]) worked out at 4700 nM; in assay [2] (setting [4]) it was 0.96 nM; on PI3K (p110β/p85α) (setting [5]), 2700 nM; on PI3K (p110γ) (setting [6]) it was 3200 nM.

`Cc1nc([C@@H](C)c2cc(Cl)c(F)c(-c3ccc(C(=O)N4CC[C@@H](O)C4)nc3)c2OC(C)C)n2ccnc(N)c12` [Compound 64, (5-(3-((S)-1-(8-amino-1-methylimidazo[1,5-a]pyrazin-3-yl)ethyl)-5-chloro-6-fluoro-2-isopropoxyphenyl)pyridin-2-yl)((R)-3-hydroxypyrrolidin-1-yl)methanone]: the IC50 in assay [1] (setting [3]) was 1400 nM; in assay [2] (setting [4]), 0.37 nM; on PI3K (p110β/p85α) (setting [5]), 1600 nM; on PI3K (p110γ) (setting [6]) it was 2100 nM.

In the case of `CC(C)Oc1c([C@H](C)c2nc(Cl)c3c(N)nccn23)cc(Cl)c(F)c1-c1ccc(C(N)=O)nc1` [Compound 17B], the IC50 in assay [1] (setting [3]) was determined as 970 nM; in assay [2] (setting [4]) it was 0.28 nM; on PI3K (p110β/p85α) (setting [5]), 670 nM; at PI3K (p110γ) (setting [6]), 520 nM.

As to `Cc1c(Cl)cc([C@H](C)c2nc(Br)c3c(N)nccn23)c(OC(C)C)c1-c1ccc(C(F)(F)F)nc1` [Compound 38A], the IC50 in assay [1] (setting [3]) is greater than 200000 nM; in assay [2] (setting [4]), 5.4 nM; on PI3K (p110β/p85α) (setting [5]) it was 28000 nM; at PI3K (p110γ) (setting [6]) it was 740 nM.

Turning to `Cc1nc([C@@H](C)c2cc(Cl)c(F)c(-c3ccc(C(=O)NC4(CO)CC4)nc3)c2OC(C)C)n2ccnc(N)c12` [Compound 66, (S)-5-(3-(1-(8-amino-1-methylimidazo[1,5-a]pyrazin-3-yl)ethyl)-5-chloro-6-fluoro-2-isopropoxyphenyl)-N-(1-(hydroxymethyl)cyclopropyl)picolinamide], the IC50 came to 4100 nM in assay [1] (setting [3]), 0.72 nM in assay [2] (setting [4]), 3400 nM on PI3K (p110β/p85α) (setting [5]) and 2600 nM on PI3K (p110γ) (setting [6]).

For `COc1c(C(C)c2nc(Br)c3c(N)nccn23)cc(Cl)c(C)c1-c1ccc(Cl)nc1` (stereo not shown) [Compound 22, 1-bromo-3-(1-(5-chloro-3-(6-chloropyridin-3-yl)-2-methoxy-4-methylphenyl)ethyl) imidazo[1,5-a]pyrazin-8-amine], the half-maximal inhibitory concentration (IC50) in assay [1] (setting [3]) came out at 1400 nM; in assay [2] (setting [4]) it was 1.5 nM; at PI3K (p110β/p85α) (setting [5]), 390 nM; at PI3K (p110γ) (setting [6]), 760 nM.

`Cc1nc([C@@H](C)c2cc(Cl)c(F)c(-c3ccc(C(=O)NC(C)(C)C(=O)O)nc3)c2OC(C)C)n2ccnc(N)c12` [Compound 70, (S)-2-(5-(3-(1-(8-amino-1-methylimidazo[1,5-a]pyrazin-3-yl)ethyl)-5-chloro-6-fluoro-2-isopropoxyphenyl)picolinamido)-2-methylpropanoic Acid]: the IC50 in assay [1] (setting [3]) stood at 4400 nM; in assay [2] (setting [4]), 0.33 nM; at PI3K (p110β/p85α) (setting [5]) it was 540 nM; on PI3K (p110γ) (setting [6]), 840 nM.

With `CCOc1c(C(C)c2nc(Br)c3c(N)nccn23)cc(Cl)c(C)c1-c1ccc(OCCOC)nc1` (stereo not shown) [Compound 30, 1-bromo-3-(1-(5-chloro-2-ethoxy-3-(6-(2-methoxyethoxy)pyridin-3-yl)-4-methylphenyl)ethyl)imidazo[1,5-a]pyrazin-8-amine], the IC50 in assay [1] (setting [3]) worked out at 1800 nM; in assay [2] (setting [4]) it was 2.3 nM; at PI3K (p110β/p85α) (setting [5]) it was 530 nM; at PI3K (p110γ) (setting [6]), 450 nM.

On to `CCOc1c(C(C)c2nc(Cl)c3c(N)nccn23)cc(Cl)c(F)c1-c1ccc(C(=O)N(C)C)nc1` (stereo not shown) [Compound 13, 5-(3-(1-(8-amino-1-chloroimidazo[1,5-a]pyrazin-3-yl)ethyl)-5-chloro-2-ethoxy-6-fluorophenyl)-N,N-dimethylpicolinamide], for which the IC50 in assay [1] (setting [3]) stood at 1200 nM; in assay [2] (setting [4]), 1.2 nM; at PI3K (p110β/p85α) (setting [5]), 400 nM; at PI3K (p110γ) (setting [6]), 480 nM.

Turning to `COc1c(C(C)c2nc(Br)c3c(N)nccn23)cc(Cl)c(C)c1-c1ccc(C)nc1` (stereo not shown) [Compound 19, 1-bromo-3-(1-(5-chloro-2-methoxy-4-methyl-3-(6-methylpyridin-3-yl)phenyl)ethyl) imidazo[1,5-a]pyrazin-8-amine], the IC50 in assay [1] (PI3Kα Enzyme activity IC50) was determined as 580 nM; in assay [2] (PI3Kδ Enzyme activity IC50), 1.3 nM; on PI3K (p110β/p85α) (PI3Kβ Enzyme activity IC50), 180 nM; at PI3K (p110γ) (PI3Kγ Enzyme activity IC50), 210 nM.

`CCOc1c([C@H](C)c2nc(Cl)c3c(N)nccn23)cc(Cl)c(C)c1-c1ccc(Cl)nc1` [Compound 27A]: the IC50 is 2200 nM in assay [1] (setting [3]), 1.1 nM in assay [2] (setting [4]), 400 nM on PI3K (p110β/p85α) (setting [5]) and 1000 nM at PI3K (p110γ) (setting [6]).

Take `CCOc1c(C(C)c2nc(Cl)c3c(N)nccn23)cc(Cl)c(F)c1C1CCOCC1` (single isomer, unassigned) [Compound 49A, 1-chloro-3-(1-(5-chloro-2-ethoxy-4-fluoro-3-(tetrahydro-2H-pyran-4-yl)phenyl)ethyl)imidazo[1,5-a]pyrazin-8-amine]: the IC50 in assay [1] (setting [3]) came to 2100 nM; in assay [2] (setting [4]), 0.49 nM; at PI3K (p110β/p85α) (setting [5]), 260 nM; on PI3K (p110γ) (setting [6]) it was 440 nM.

Regarding `CCOc1c([C@H](C)c2nc(Cl)c3c(N)nccn23)cc(Cl)c(F)c1-c1ccc(C(F)(F)F)nc1OC` [Compound 43A], the IC50 was greater than 50000 nM in assay [1] (setting [3]), 28 nM in assay [2] (setting [4]), greater than 50000 nM on PI3K (p110β/p85α) (setting [5]) and greater than 50000 nM on PI3K (p110γ) (setting [6]).

In the case of `CCOc1c(C(C)c2nc(Cl)c3c(N)nccn23)cc(Cl)c(C)c1-c1ccc(C(F)(F)F)nc1` (stereo not shown) [Compound 25, 1-chloro-3-(1-(5-chloro-2-ethoxy-4-methyl-3-(6-(trifluoromethyl)pyridin-3-yl)phenyl)ethyl)imidazo[1,5-a]pyrazin-8-amine], the IC50 was determined as 3000 nM in assay [1] (setting [3]), 2.6 nM in assay [2] (setting [4]), 2600 nM at PI3K (p110β/p85α) (setting [5]) and 1400 nM on PI3K (p110γ) (setting [6]).

By IC50 is commonly meant the concentration that gives 50% inhibition.
